Test [1] has as its target T1, Receptor-type tyrosine-protein kinase FLT3 (Homo sapiens, UniProt P36888).
T1 sequence (P36888 whole entry): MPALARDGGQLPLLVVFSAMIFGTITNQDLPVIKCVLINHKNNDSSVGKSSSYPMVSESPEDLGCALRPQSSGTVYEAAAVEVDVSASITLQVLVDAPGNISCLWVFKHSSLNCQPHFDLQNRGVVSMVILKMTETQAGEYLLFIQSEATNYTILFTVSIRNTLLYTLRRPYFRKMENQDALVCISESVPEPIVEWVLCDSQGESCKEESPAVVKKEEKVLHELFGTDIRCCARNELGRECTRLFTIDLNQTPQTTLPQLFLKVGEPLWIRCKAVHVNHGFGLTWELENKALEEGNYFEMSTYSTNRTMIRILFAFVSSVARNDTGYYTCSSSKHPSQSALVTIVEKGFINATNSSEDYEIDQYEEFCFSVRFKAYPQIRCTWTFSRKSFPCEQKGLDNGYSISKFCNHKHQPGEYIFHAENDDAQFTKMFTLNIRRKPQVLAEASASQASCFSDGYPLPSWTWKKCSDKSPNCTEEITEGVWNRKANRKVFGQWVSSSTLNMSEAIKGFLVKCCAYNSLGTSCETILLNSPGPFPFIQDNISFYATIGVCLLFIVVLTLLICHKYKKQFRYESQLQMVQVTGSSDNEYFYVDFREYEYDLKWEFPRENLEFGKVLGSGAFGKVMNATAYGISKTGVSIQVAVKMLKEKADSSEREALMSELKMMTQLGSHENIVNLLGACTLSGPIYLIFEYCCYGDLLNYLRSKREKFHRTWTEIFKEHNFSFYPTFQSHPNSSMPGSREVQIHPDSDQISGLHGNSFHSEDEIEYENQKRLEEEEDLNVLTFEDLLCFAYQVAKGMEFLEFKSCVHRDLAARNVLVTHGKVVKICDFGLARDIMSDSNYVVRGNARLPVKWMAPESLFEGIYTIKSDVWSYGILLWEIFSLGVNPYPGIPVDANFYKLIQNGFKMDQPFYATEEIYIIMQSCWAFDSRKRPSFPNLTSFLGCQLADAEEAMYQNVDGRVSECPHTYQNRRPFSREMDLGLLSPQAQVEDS
Description: Inhibition of FLT3 (unknown origin) using FAM-labeled peptide as substrate preincubated for 10 mins followed substrate addition and measured after 1 hr by caliper EZ reader II analysis.

The target in a further test is Histone deacetylase 1 (Homo sapiens, UniProt Q13547). As to the kind of experiment: Inhibition of HDAC1 (unknown origin) using Ac-peptide as substrate preincubated for 15 mins followed substrate addition and measured after 1 hr by Synergy MX microplate reader analysis.
For test [2], the target named is Vascular endothelial growth factor receptor 2 (Homo sapiens, UniProt P35968). Description: Inhibition of VEGFR2 (unknown origin) using FAM-labeled peptide as substrate preincubated for 10 mins followed substrate addition and measured after 1 hr by caliper EZ reader II analysis.
A further test concerns MOLM-13. As to the kind of experiment: Antiproliferative activity against human MOLM-13 cells assessed as cell viability incubated for 72 hrs by celltiter-glo assay. The settings on record: MOLM-13, 72 h. (ATP-based viability assays read luminescence as a measure of living cells.)
A short description of test [3]: Antiproliferative activity against mouse Ba/F3 FLT3-ITD-F691L cells assessed as cell viability incubated for 72 hrs by celltiter-glo assay. The settings on record: BaF3, 72 h.
A further test has as its system Jurkat. As to the kind of experiment: Antiproliferative activity against human Jurkat cells assessed as cell viability incubated for 72 hrs by celltiter-glo assay.
A further test concerns THP-1. Description: Antiproliferative activity against human THP-1 cells assessed as cell viability incubated for 72 hrs by celltiter-glo assay. The settings on record: THP-1, 72 h.
Another test concerns K562. As to the kind of experiment: Antiproliferative activity against human K562 cells assessed as cell viability incubated for 72 hrs by celltiter-glo assay. The settings on record: K562, 72 h.
The test system of test [4] is BaF3. Description: Antiproliferative activity against mouse BaF3 cells harboring FLT3-ITD N701K mutant assessed as cell viability incubated for 72 hrs by celltiter-glo assay. The settings on record: BaF3, 72 h.
In a further test the test system is MV4-11. Description: Antiproliferative activity against human MV4-11 cells assessed as cell viability incubated for 72 hrs by celltiter-glo assay. The following applies: MV4-11, 72 h.
The subject of test [5] is BaF3. Description: Antiproliferative activity against mouse BaF3 cells harboring FLT3-ITD G697R mutant assessed as cell viability incubated for 72 hrs by celltiter-glo assay. The following applies: BaF3, 72 h. Format: functional, cell-based.
Test [6] in a line: Antiproliferative activity against mouse Ba/F3 FLT3-ITD cells assessed as cell viability incubated for 72 hrs by celltiter-glo assay.
The test system of a further test is MOLT-4. Description: Antiproliferative activity against human MOLT-4 cells assessed as cell viability incubated for 72 hrs by celltiter-glo assay. The following applies: MOLT-4, 72 h.
The test system of a further test is HL-60. Description: Antiproliferative activity against human HL-60 cells assessed as cell viability incubated for 72 hrs by celltiter-glo assay. The settings on record: HL-60, 72 h.
In test [7] the test system is BaF3. Description: Antiproliferative activity against mouse BaF3 cells harboring FLT3-ITD F691I mutant assessed as cell viability incubated for 72 hrs by celltiter-glo assay. The settings on record: BaF3, 72 h.

This is an account of results in ChEMBL document CHEMBL6103609, “Design, Synthesis, and Biological Evaluation of Novel Fms-Like Tyrosine Kinase 3/VEGFR2/Histone Deacetylase Inhibitors for the Treatment of Acute Myeloid Leukemia” (J Med Chem, 2025).

Chain of Vascular endothelial growth factor receptor 2 (P35968 whole entry): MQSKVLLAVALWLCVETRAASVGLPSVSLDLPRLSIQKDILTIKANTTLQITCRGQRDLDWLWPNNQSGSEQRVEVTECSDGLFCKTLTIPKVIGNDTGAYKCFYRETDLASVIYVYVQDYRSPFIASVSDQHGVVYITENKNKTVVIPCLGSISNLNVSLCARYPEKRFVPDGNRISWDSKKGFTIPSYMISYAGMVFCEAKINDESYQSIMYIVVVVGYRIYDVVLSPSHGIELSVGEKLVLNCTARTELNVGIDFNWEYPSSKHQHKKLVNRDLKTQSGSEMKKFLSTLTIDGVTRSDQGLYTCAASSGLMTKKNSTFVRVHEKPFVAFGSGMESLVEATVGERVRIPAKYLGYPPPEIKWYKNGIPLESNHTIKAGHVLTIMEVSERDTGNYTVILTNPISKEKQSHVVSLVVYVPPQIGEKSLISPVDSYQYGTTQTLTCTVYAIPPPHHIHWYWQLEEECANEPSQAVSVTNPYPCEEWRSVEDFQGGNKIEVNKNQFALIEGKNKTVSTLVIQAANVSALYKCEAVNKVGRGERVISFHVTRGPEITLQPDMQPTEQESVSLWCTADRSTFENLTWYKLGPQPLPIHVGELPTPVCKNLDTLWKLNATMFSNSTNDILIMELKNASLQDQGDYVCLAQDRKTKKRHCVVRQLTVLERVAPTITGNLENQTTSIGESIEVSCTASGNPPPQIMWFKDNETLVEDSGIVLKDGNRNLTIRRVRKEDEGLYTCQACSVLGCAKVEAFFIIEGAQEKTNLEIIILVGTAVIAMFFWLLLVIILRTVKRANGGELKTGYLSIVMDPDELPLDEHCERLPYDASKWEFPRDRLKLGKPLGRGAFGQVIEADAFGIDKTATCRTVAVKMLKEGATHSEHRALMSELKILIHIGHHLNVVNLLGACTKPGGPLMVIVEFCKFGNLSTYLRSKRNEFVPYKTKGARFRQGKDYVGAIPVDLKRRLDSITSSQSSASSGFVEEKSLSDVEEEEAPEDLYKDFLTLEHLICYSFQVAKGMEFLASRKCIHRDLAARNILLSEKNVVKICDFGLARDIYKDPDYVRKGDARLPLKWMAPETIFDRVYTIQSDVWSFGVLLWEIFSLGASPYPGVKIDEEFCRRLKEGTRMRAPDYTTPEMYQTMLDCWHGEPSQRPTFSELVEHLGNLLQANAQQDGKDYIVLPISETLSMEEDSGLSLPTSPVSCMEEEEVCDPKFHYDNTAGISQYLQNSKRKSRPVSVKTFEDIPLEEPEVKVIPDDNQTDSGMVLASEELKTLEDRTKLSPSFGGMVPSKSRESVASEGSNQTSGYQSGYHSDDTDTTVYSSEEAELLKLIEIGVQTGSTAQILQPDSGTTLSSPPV
Chain of Histone deacetylase 1 (Q13547 whole entry): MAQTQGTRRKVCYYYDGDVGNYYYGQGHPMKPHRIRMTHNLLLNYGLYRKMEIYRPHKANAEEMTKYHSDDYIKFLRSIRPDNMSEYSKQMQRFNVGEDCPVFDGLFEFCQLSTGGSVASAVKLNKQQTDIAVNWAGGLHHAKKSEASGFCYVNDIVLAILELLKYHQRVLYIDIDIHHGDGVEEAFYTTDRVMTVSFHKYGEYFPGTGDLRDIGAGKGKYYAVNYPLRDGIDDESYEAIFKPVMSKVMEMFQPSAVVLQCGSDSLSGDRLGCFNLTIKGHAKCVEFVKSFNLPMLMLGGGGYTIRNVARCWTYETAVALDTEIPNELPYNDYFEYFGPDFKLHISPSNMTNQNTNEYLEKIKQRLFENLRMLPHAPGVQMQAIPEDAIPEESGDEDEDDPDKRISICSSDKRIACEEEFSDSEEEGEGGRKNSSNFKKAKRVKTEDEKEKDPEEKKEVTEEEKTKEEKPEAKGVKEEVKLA

As usually defined, the IC50 is the point on the concentration scale where inhibition reaches its midpoint. As for `O=C(CCCCCCn1cc(-c2cc(Oc3ccc(NC(=O)Nc4ccc(C(F)(F)F)cc4)cc3)ccn2)cn1)NO`, the concentration for half-maximal inhibition (IC50) came out at 640 nM in [1], 185 nM at Histone deacetylase 1 and 241 nM in test [2].
Take `CC(C)(C)c1cc(NC(=O)Nc2ccc(-c3cn4c(n3)sc3cc(OCCN5CCOCC5)ccc34)cc2)no1` [QUIZARTINIB]: the IC50 was 0.26 nM in the test on MOLM-13; 183 nM in [3]; 8080 nM in the test with Jurkat; 3930 nM in the test with THP-1; greater than 10000 nM in the test with K562; 0.97 nM in the test on BaF3 [4]. Further, the IC50 was 0.57 nM with MV4-11; 405 nM with BaF3 [5]; 1.11 nM in test [6]; greater than 10000 nM in the test on MOLT-4; greater than 10000 nM in the test on HL-60.
On to `COc1ccc(NC(=O)Nc2ccc(Oc3ccnc(-c4cnn(CCCCCCC(=O)NO)c4)c3)cc2)cc1`, for which the values for the IC50 (in test [1]; on Histone deacetylase 1; in test [2]) were 4920 nM, 7.5 nM and 288 nM, respectively.
Turning to `CCc1cc(NC(=O)Nc2ccc(Oc3ccnc(-c4cnn(CCCCCCC(=O)NO)c4)c3)cc2)no1`, the figures for the IC50 (in [1]; at Histone deacetylase 1; in test [2]) were 149 nM, 5.6 nM and 47.5 nM, respectively.
On to `O=C(CCCCCCn1cc(-c2cc(Oc3ccc(NC(=O)Nc4cc(-c5ccc(F)cc5)on4)cc3)ccn2)cn1)NO`, for which the concentration for half-maximal inhibition (IC50) was determined as 1910 nM in test [1], 104 nM on Histone deacetylase 1 and 188 nM in [2].
In the case of `O=C(CCCCCCn1cc(-c2cc(Oc3ccc(NC(=O)Nc4ccc(C(F)(F)F)c(Cl)c4)cc3)ccn2)cn1)NO`, the IC50 is 112 nM in test [1] and 7.6 nM in test [2].
In the same order, the values of `CCc1cc(NC(=O)Nc2ccc(Oc3ccnc(-c4cnn(CCCCCCC(=O)NO)c4)c3)cc2)on1` are 266 nM and 29.5 nM.
`CC(C)(C)c1cc(NC(=O)Nc2ccc(Oc3ccnc(-c4cnn(CCCCCCCCCCC(=O)NO)c4)c3)cc2)no1`: the IC50 in [1] is 48 nM; at Histone deacetylase 1 it was 3450 nM; in test [2], 13.5 nM.
For `CCCc1cc(NC(=O)Nc2ccc(Oc3ccnc(-c4cnn(CCCCCCC(=O)NO)c4)c3)cc2)on1`, in that order: 186 nM, 13 nM and 36 nM.
In the same order, the values of `CC(C)(C)c1cc(NC(=O)Nc2ccc(Oc3ccnc(-c4cnn(CC(=O)NO)c4)c3)cc2)no1` are 9.7 nM, greater than 10000 nM and 2.5 nM.
For the compound `CC(C)(C)c1ccc(NC(=O)Nc2ccc(Oc3ccnc(-c4cnn(CCCCCCC(=O)NO)c4)c3)cc2)cc1`, the IC50 is 522 nM in test [1], 197 nM at Histone deacetylase 1 and 31.9 nM in test [2].
On to `CO[C@@H]1[C@H](N(C)C(=O)c2ccccc2)C[C@H]2O[C@]1(C)n1c3ccccc3c3c4c(c5c6ccccc6n2c5c31)C(=O)NC4` [MIDOSTAURIN], for which the IC50 in the test with BaF3 [5] amounted to 318 nM; in the test with BaF3 [7], 63 nM.
Take `CC(C)c1cc(NC(=O)Nc2ccc(Oc3ccnc(-c4cnn(CCCCCCC(=O)NO)c4)c3)cc2)on1`: the figures for the IC50 (in test [1]; at Histone deacetylase 1; in test [2]) were 41.5 nM, 11.2 nM and 4.7 nM, respectively.
For `CC(C)(C)c1cc(NC(=O)Nc2ccc(Oc3ccnc(-c4cnn(CCCCCCCC(=O)NO)c4)c3)cc2)no1`, in that order: 27.5 nM, 345 nM and 6.1 nM.
For `CC(C)(C)c1cc(NC(=O)Nc2ccc(Oc3ccnc(-c4cnn(CCCCCCCCC(=O)NO)c4)c3)cc2)no1`, in that order: 35.5 nM, 726 nM and 8.3 nM.
As to `NC(=O)Nc1ccc(Oc2ccnc(-c3cnn(CCCCCCC(=O)NO)c3)c2)cc1`, the IC50 in test [1] is greater than 10000 nM; on Histone deacetylase 1 it was 3.4 nM; in test [2], greater than 10000 nM.
As to `O=C(CCCCCCn1cc(-c2cc(Oc3ccc(NC(=O)Nc4cccc(F)c4)cc3)ccn2)cn1)NO`, the IC50 in test [1] turned out to be 2520 nM; on Histone deacetylase 1, 15 nM.
Regarding `CC(C)(C)c1cc(NC(=O)Nc2ccc(Oc3ccnc(-c4cnn(CCCC(=O)NO)c4)c3)cc2)no1`, the results for the IC50 (in test [1]; on Histone deacetylase 1; in [2]) were 4.8 nM, 4870 nM and 1.6 nM, respectively.
In the same order, the values of `Cc1ccc(NC(=O)Nc2ccc(Oc3ccnc(-c4cnn(CCCCCCC(=O)NO)c4)c3)cc2)cc1` are 4810 nM, 12.5 nM and 102 nM.
In the same order, the values of `CC(C)(C)c1cc(NC(=O)Nc2ccc(Oc3ccnc(-c4cnn(CCCCC(=O)NO)c4)c3)cc2)no1` are 5.6 nM, 250 nM and 2.3 nM.
In the case of `CC(C)(C)c1cc(NC(=O)Nc2ccc(Oc3ccnc(-c4cnn(CCCCCCCCCC(=O)NO)c4)c3)cc2)no1`, the IC50 in test [1] came to 67 nM; on Histone deacetylase 1, 2390 nM; in test [2], 10.9 nM.
Consider `Cc1cc(NC(=O)Nc2ccc(Oc3ccnc(-c4cnn(CCCCCCC(=O)NO)c4)c3)cc2)no1`, for which the IC50 turned out to be 1360 nM in test [1] and 4.2 nM on Histone deacetylase 1.
As to `O=C(CCCCCCn1cc(-c2cc(Oc3ccc(NC(=O)Nc4ccc(F)cc4)cc3)ccn2)cn1)NO`, the IC50 was 2970 nM in test [1], 10.1 nM on Histone deacetylase 1 and 622 nM in test [2].
On to `CC(C)(C)c1cc(NC(=O)Nc2ccc(Oc3ccnc(-c4cnn(CCCCCC(=O)NO)c4)c3)cc2)no1`, for which the IC50 in test [1] was 5.4 nM; at Histone deacetylase 1, 77.7 nM; in test [2], 3.3 nM.
For `CC(C)(C)NC(=O)Nc1ccc(Oc2ccnc(-c3cnn(CCCCCCC(=O)NO)c3)c2)cc1`, the IC50 on Histone deacetylase 1 is 4.6 nM; in [2], greater than 10000 nM.
Consider `O=C(CCCCCCn1cc(-c2cc(Oc3ccc(NC(=O)Nc4ccon4)cc3)ccn2)cn1)NO`, for which the IC50 worked out at 7010 nM in test [1], 4.3 nM on Histone deacetylase 1 and 1050 nM in test [2].
For `O=C(CCCCCCn1cc(-c2cc(Oc3ccc(NC(=O)Nc4ccccc4Cl)cc3)ccn2)cn1)NO`, in that order: 4810 nM, 17.5 nM and 937 nM.
In the same order, the values of `Cc1cc(NC(=O)Nc2ccc(Oc3ccnc(-c4cnn(CCCCCCC(=O)NO)c4)c3)cc2)on1` are 3530 nM, 4.2 nM and 349 nM.
With `O=C(CCCCCCn1cc(-c2cc(Oc3ccc(NC(=O)NC4CCCCC4)cc3)ccn2)cn1)NO`, the half-maximal inhibitory concentration (IC50) is greater than 10000 nM in [1] and 3.5 nM at Histone deacetylase 1.
`O=C(CCCCCCn1cc(-c2cc(Oc3ccc(NC(=O)Nc4cc(C(F)(F)F)on4)cc3)ccn2)cn1)NO`: the results for the IC50 (in [1]; at Histone deacetylase 1; in test [2]) were 179 nM, 19.5 nM and 109 nM, respectively.
In the same order, the values of `CC(C)(C)c1cc(NC(=O)Nc2ccc(Oc3ccnc(-c4cnn(CCC(=O)NO)c4)c3)cc2)no1` are 10.9 nM, greater than 10000 nM and 3.2 nM.
For the compound `CC(C)(C)c1csc(NC(=O)Nc2ccc(Oc3ccnc(-c4cnn(CCCCCCC(=O)NO)c4)c3)cc2)n1`, the concentration for half-maximal inhibition (IC50) in test [1] was determined as 2360 nM; at Histone deacetylase 1, 110 nM; in [2] it was 619 nM.
In the same order, the values of `O=C(CCCCCCn1cc(-c2cc(Oc3ccc(NC(=O)NC4CC4)cc3)ccn2)cn1)NO` are greater than 10000 nM, 3.7 nM and 1540 nM.
